Calls of active or inactive are those of the source. The rule behind the calls is not given here.
How the values were obtained:
Fusobacterium nucleatum [1] = experiment: Inhibition of Fusobacterium nucleatum ATCC 25586 recombinant MGL Y56F mutant expressed in Escherichia coli BL21 (DE3) assessed as decrease in signal intensity by measuring recovery ratio by 19F NMR based competition assay relative to wild type; design: concentration or dose not given beside the values
[2] = target: T1, L-methionine gamma-lyase (Fusobacterium nucleatum subsp. nucleatum) (UniProt Q8RDT4); experiment: Inhibition of Fusobacterium nucleatum ATCC 25586 recombinant wild type MGL expressed in Escherichia coli BL21 (DE3) assessed as decrease in signal intensity by 19F NMR based competition assay relative to control; design: concentration or dose not given beside the values
T1 sequence (whole entry): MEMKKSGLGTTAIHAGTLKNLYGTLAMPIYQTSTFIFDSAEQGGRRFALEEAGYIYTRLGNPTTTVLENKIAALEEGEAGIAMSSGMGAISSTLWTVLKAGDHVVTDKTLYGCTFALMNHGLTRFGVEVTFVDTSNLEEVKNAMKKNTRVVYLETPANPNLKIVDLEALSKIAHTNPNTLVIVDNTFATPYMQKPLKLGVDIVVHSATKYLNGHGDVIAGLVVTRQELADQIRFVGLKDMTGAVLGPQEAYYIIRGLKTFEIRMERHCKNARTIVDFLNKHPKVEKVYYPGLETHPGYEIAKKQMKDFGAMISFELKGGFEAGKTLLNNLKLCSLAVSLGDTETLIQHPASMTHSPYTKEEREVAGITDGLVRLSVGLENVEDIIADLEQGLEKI

Fusobacterium nucleatum [3] = experiment: Inhibition of Fusobacterium nucleatum ATCC 25586 recombinant MGL R373A mutant expressed in Escherichia coli BL21 (DE3) assessed as decrease in signal intensity by measuring recovery ratio by 19F NMR based competition assay relative to wild type; design: scale not given: the % may be the effect or the level left
Fusobacterium nucleatum [4] = experiment: Inhibition of Fusobacterium nucleatum ATCC 25586 recombinant MGL C113S mutant expressed in Escherichia coli BL21 (DE3) assessed as decrease in signal intensity by measuring recovery ratio by 19F NMR based competition assay relative to wild type; design: scale not given: the % may be the effect or the level left
Fusobacterium nucleatum [5] = experiment: Inhibition of Fusobacterium nucleatum ATCC 25586 recombinant MGL R58A mutant expressed in Escherichia coli BL21 (DE3) assessed as decrease in signal intensity by measuring recovery ratio by 19F NMR based competition assay relative to wild type; design: scale not given: the % may be the effect or the level left
Fusobacterium nucleatum [6] = experiment: Inhibition of Fusobacterium nucleatum ATCC 25586 recombinant MGL R373K mutant expressed in Escherichia coli BL21 (DE3) assessed as decrease in signal intensity by measuring recovery ratio by 19F NMR based competition assay relative to wild type; design: concentration or dose not given beside the values
Fusobacterium nucleatum [7] = experiment: Inhibition of Fusobacterium nucleatum ATCC 25586 recombinant MGL Y111F mutant expressed in Escherichia coli BL21 (DE3) assessed as decrease in signal intensity by measuring recovery ratio by 19F NMR based competition assay relative to wild type; design: concentration or dose not given beside the values
Fusobacterium nucleatum [8] = experiment: Inhibition of Fusobacterium nucleatum ATCC 25586 recombinant MGL K238A mutant expressed in Escherichia coli BL21 (DE3) assessed as decrease in signal intensity by measuring recovery ratio by 19F NMR based competition assay relative to wild type; design: concentration or dose not given beside the values
Fusobacterium nucleatum [9] = experiment: Inhibition of Fusobacterium nucleatum ATCC 25586 recombinant MGL R58K mutant expressed in Escherichia coli BL21 (DE3) assessed as decrease in signal intensity by measuring recovery ratio by 19F NMR based competition assay relative to wild type; design: scale not given: the % may be the effect or the level left
[10] = target: T1, L-methionine gamma-lyase (Fusobacterium nucleatum subsp. nucleatum); experiment: Inhibition of Fusobacterium nucleatum ATCC 25586 recombinant wild type MGL expressed in Escherichia coli BL21 (DE3) assessed as formation of 2-ketobutyrate using L-methionine as substrate by enzymatic assay; design: concentration or dose not given beside the values; settings: concentration not given here

CC(C)(C)OC(=O)N1CCC(CN)(c2ccccc2F)CC1
Activity (Fusobacterium nucleatum [1]): 80% | Activity [2]: 77% | Activity (Fusobacterium nucleatum [3]): inactive | Activity (Fusobacterium nucleatum [4]): 50% | Activity (Fusobacterium nucleatum [5]): 50% | Activity (Fusobacterium nucleatum [6]): Active | Activity (Fusobacterium nucleatum [7]): Active | Activity (Fusobacterium nucleatum [8]): Active | Activity (Fusobacterium nucleatum [9]): 50% | inhibition [10]: 17.2%

CCOC(=O)c1nc(-c2ccccc2F)no1
Activity (Fusobacterium nucleatum [1]): 80% | Activity [2]: 82% | Activity (Fusobacterium nucleatum [3]): 80% | Activity (Fusobacterium nucleatum [4]): Active | Activity (Fusobacterium nucleatum [5]): 50% | Activity (Fusobacterium nucleatum [6]): Active | Activity (Fusobacterium nucleatum [7]): 50% | Activity (Fusobacterium nucleatum [8]): Active | Activity (Fusobacterium nucleatum [9]): 50% | inhibition [10]: 13.3%

O=C(O)c1ccnc(OC(F)(F)F)c1
Activity (Fusobacterium nucleatum [1]): 80% | Activity [2]: 76% | Activity (Fusobacterium nucleatum [3]): 80% | Activity (Fusobacterium nucleatum [4]): Active | Activity (Fusobacterium nucleatum [5]): 80% | Activity (Fusobacterium nucleatum [6]): 50% | Activity (Fusobacterium nucleatum [7]): 50% | Activity (Fusobacterium nucleatum [8]): 50% | Activity (Fusobacterium nucleatum [9]): 80% | inhibition [10]: 22.3%

CC(C)(Cc1cccc(C(F)(F)F)c1)C(=O)O
Activity (Fusobacterium nucleatum [1]): 80% | Activity [2]: 64% | Activity (Fusobacterium nucleatum [3]): 80% | Activity (Fusobacterium nucleatum [4]): Active | Activity (Fusobacterium nucleatum [5]): 80% | Activity (Fusobacterium nucleatum [6]): Active | Activity (Fusobacterium nucleatum [7]): 50% | Activity (Fusobacterium nucleatum [8]): 50% | Activity (Fusobacterium nucleatum [9]): 80% | inhibition [10]: 27.5%

O=C(O)c1cnc(OCC(F)(F)F)cn1
Activity (Fusobacterium nucleatum [1]): 80% | Activity [2]: 49% | Activity (Fusobacterium nucleatum [3]): 80% | Activity (Fusobacterium nucleatum [4]): Active | Activity (Fusobacterium nucleatum [5]): 80% | Activity (Fusobacterium nucleatum [6]): Active | Activity (Fusobacterium nucleatum [7]): Active | Activity (Fusobacterium nucleatum [8]): 50% | Activity (Fusobacterium nucleatum [9]): 80% | inhibition [10]: 4.4%

O=C(O)c1cc(C(F)(F)F)nn1Cc1ccccc1
Activity (Fusobacterium nucleatum [1]): 50% | Activity [2]: 41% | Activity (Fusobacterium nucleatum [3]): 50% | Activity (Fusobacterium nucleatum [4]): inactive | Activity (Fusobacterium nucleatum [5]): 80% | Activity (Fusobacterium nucleatum [6]): 50% | Activity (Fusobacterium nucleatum [7]): 50% | Activity (Fusobacterium nucleatum [8]): Active | Activity (Fusobacterium nucleatum [9]): 80% | inhibition [10]: 14.5%

CCOC(=O)c1nc(-c2ccc(F)cc2)no1
Activity (Fusobacterium nucleatum [1]): 80% | Activity [2]: 84% | Activity (Fusobacterium nucleatum [3]): 80% | Activity (Fusobacterium nucleatum [4]): Active | Activity (Fusobacterium nucleatum [5]): 80% | Activity (Fusobacterium nucleatum [6]): 50% | Activity (Fusobacterium nucleatum [7]): 50% | Activity (Fusobacterium nucleatum [8]): Active | Activity (Fusobacterium nucleatum [9]): 50% | inhibition [10]: 33.1%

O=C(O)c1ccc(OCC(F)(F)F)cn1
Activity (Fusobacterium nucleatum [1]): 80% | Activity [2]: 40% | Activity (Fusobacterium nucleatum [3]): 80% | Activity (Fusobacterium nucleatum [4]): 80% | Activity (Fusobacterium nucleatum [5]): 80% | Activity (Fusobacterium nucleatum [6]): Active | Activity (Fusobacterium nucleatum [7]): 80% | Activity (Fusobacterium nucleatum [8]): 50% | Activity (Fusobacterium nucleatum [9]): 80% | inhibition [10]: 15%

CC(C)(C)OC(=O)N[C@H]1CC[C@H](N2Cc3cccc(F)c3C2=O)CC1
Activity (Fusobacterium nucleatum [1]): 50% | Activity [2]: 100% | Activity (Fusobacterium nucleatum [3]): Active | Activity (Fusobacterium nucleatum [4]): Active | Activity (Fusobacterium nucleatum [5]): Active | Activity (Fusobacterium nucleatum [6]): Active | Activity (Fusobacterium nucleatum [7]): Active | Activity (Fusobacterium nucleatum [8]): Active | Activity (Fusobacterium nucleatum [9]): Active | inhibition [10]: 53.7%

CC(C)(CC(=O)O)c1ccc(F)cc1
Activity (Fusobacterium nucleatum [1]): 80% | Activity [2]: 57% | Activity (Fusobacterium nucleatum [3]): 80% | Activity (Fusobacterium nucleatum [4]): inactive | Activity (Fusobacterium nucleatum [5]): 80% | Activity (Fusobacterium nucleatum [6]): inactive | Activity (Fusobacterium nucleatum [7]): 80% | Activity (Fusobacterium nucleatum [8]): 50% | Activity (Fusobacterium nucleatum [9]): 80% | inhibition [10]: -3.3%

O=C(O)c1cnn(-c2ccc(F)cc2)c1
Activity (Fusobacterium nucleatum [1]): 80% | Activity [2]: 69% | Activity (Fusobacterium nucleatum [3]): 80% | Activity (Fusobacterium nucleatum [4]): Active | Activity (Fusobacterium nucleatum [5]): 80% | Activity (Fusobacterium nucleatum [6]): Active | Activity (Fusobacterium nucleatum [7]): 80% | Activity (Fusobacterium nucleatum [8]): 50% | Activity (Fusobacterium nucleatum [9]): 50% | inhibition [10]: -0.6%

CC(C)(CC(=O)O)c1ccc(C(F)(F)F)cc1
Activity (Fusobacterium nucleatum [1]): 80% | Activity [2]: 62% | Activity (Fusobacterium nucleatum [3]): 50% | Activity (Fusobacterium nucleatum [4]): Active | Activity (Fusobacterium nucleatum [5]): 80% | Activity (Fusobacterium nucleatum [6]): Active | Activity (Fusobacterium nucleatum [7]): 80% | Activity (Fusobacterium nucleatum [8]): 50% | Activity (Fusobacterium nucleatum [9]): 80% | inhibition [10]: 11.3%
